Data on one molecule can be found in patent publication US7897358B2, “Canine transient receptor potential V2 (cTRPV2) and methods of screening for TRPV2 channel modulators” (Janssen Pharmaceutica N.V., priority 2007, dated 2011).

In one assay the test system is canine TRPV2 (cTRPV2). The assay can be described thus: Calcium influx functional assay (FLIPR) in HEK293 cells transiently transfected with cTRPV2. In kind it is cell-based. The following applies: recombinant cTRPV2-expressing host cells. The method, then: The expression construct, cTRPV2/pcDNA3.1 was then transfected into human embryonic kidney cells (HEK293, ATCC CRL-1573) with FuGene6 transfection reagent (Roche, Indianapolis, Ind.), according to the vendor's protocol. TRPV2-expressing HEK293 cells were cultured in DMEM supplemented with 10% fetal bovine serum, 100 units/ml penicillin and 100 μg/ml streptomycin at 37° C. with 5% CO2, and were analyzed using a calcium influx assay 48-72 hr. post-transfection.
Transiently transfected cells were seeded in 384-well plates at a density of 1×10^4 cells/well and incubated overnight at 37° C. The following day, the cells were loaded with buffer and calcium dye, as recommended by the vendor (Molecular Devices, Sunnyvale, Calif.), in a final volume of 40 μl and incubated for 30 minutes at room temperature. The fluorescence intensity was measured by FLIPR before, during and after the addition of Δ^9-THC, which was added to the cells at a final concentration of 100 μM.

The target in the next assay is T1, human TRPV2 (Homo sapiens, UniProt Q9Y5S1).
T1 sequence (Q9Y5S1 1-764): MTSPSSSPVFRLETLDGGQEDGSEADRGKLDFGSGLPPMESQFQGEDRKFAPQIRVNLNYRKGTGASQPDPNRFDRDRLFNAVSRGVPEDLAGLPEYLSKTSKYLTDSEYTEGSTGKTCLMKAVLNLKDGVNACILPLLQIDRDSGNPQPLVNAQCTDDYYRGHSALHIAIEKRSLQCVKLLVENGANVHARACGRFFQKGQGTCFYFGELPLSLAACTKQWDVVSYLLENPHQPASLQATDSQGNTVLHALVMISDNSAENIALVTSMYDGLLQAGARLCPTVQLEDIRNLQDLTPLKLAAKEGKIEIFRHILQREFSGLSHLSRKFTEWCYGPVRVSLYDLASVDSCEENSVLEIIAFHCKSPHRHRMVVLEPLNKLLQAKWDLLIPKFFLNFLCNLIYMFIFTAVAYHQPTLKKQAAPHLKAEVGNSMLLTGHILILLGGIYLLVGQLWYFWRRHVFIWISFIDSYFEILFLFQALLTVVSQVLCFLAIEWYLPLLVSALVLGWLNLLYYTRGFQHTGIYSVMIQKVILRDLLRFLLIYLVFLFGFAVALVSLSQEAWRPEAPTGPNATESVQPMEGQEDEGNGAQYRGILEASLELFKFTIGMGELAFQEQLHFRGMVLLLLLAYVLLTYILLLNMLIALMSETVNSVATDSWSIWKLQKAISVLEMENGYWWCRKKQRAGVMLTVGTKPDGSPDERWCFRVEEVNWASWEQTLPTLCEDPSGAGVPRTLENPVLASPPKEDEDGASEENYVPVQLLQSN
The following applies: cited from earlier work.

In another assay the target is T2, rat TRPV2 (Rattus norvegicus, UniProt Q9WUD2).
T2 sequence (Q9WUD2 1-761): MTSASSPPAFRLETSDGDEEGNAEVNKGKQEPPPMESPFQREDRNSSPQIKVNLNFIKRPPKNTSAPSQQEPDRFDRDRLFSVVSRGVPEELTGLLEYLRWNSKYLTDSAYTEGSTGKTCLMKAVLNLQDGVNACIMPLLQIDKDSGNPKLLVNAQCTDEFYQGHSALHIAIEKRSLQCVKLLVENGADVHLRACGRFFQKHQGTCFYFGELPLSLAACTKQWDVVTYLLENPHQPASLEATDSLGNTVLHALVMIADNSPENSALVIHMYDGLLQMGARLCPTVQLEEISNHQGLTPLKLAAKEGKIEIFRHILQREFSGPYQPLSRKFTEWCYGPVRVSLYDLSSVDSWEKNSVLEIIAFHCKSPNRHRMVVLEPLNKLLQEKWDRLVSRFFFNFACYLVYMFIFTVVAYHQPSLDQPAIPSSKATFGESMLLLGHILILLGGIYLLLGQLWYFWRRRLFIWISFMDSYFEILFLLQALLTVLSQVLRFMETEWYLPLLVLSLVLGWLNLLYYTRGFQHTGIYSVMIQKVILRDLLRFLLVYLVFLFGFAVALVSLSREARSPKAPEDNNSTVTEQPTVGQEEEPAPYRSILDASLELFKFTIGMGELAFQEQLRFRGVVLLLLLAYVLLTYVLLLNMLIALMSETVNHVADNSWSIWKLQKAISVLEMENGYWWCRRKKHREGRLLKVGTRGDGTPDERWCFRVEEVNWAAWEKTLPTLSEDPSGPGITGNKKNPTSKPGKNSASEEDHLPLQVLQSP
The following applies: cited from earlier work.

Another assay concerns the target T3, mouse TRPV2 (Mus musculus, UniProt Q9WTR1).
T3 sequence (Q9WTR1 1-756): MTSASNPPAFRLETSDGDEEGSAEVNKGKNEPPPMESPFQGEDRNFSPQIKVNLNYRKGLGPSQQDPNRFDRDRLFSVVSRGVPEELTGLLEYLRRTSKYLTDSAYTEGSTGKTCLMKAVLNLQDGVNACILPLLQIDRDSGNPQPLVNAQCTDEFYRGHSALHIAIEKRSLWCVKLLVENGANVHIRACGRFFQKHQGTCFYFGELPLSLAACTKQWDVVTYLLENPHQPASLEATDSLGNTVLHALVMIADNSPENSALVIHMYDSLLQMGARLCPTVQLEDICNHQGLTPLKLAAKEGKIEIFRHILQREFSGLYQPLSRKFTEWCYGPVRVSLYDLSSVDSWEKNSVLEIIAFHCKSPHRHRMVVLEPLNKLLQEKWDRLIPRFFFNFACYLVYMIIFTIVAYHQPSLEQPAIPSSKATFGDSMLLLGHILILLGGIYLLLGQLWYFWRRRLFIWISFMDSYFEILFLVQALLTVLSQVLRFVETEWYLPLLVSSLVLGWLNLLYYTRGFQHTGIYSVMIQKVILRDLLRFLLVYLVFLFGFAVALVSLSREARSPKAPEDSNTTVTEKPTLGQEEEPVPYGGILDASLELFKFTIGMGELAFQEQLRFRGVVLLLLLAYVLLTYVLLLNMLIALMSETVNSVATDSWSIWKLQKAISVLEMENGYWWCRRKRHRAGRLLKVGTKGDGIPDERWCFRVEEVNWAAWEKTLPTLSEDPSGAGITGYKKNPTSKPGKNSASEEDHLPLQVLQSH
The following applies: cited from earlier work.

`CCCCCc1cc(O)c2c(c1)OC(C)(C)[C@@H]1CCC(C)=C[C@@H]21` [Δ^9-THC, Δ^9-tetrahydrocannabinol]: the “response of the recombinant TRPV2 cell system to agonist” value in the assay with canine TRPV2 (cTRPV2) is given as “responded to Δ^9-THC in a dose-dependent manner”. Further, at human TRPV2, the “activation of human TRPV2 (selective agonist)” value is given as “activate”. For the same molecule, the “activation of rat TRPV2 (selective agonist)” value on rat TRPV2 is on record as “activate”. The “activation of mouse TRPV2 (selective agonist)” value at mouse TRPV2 was “activate”.
